Patent publication US10722580B2, “Compositions and methods for treatment and prevention of uropathogenic E. coli infection” (UNIVERSITY OF WASHINGTON, priority 2015, dated 2020)

Key:
E. coli CFT073 [1] = assay: Passive and active immunization, diabetic mice, bacterial load in urine; assay type: in vivo; settings: diabetic (STZ) mice; mAb 150 μg i.p. or LD antigen 15 μg s.c.
Description: (§1) The intraperitoneal injection was completed 1 day prior and 1 day after challenge with CFT073 E. coli (A07 Study for Vaccine candidate, Contract #HHSN2722010000401, Task Order #HHSN27200005, Galveston). […] Mixtures of antibodies for passive transfer were prepared as 150 μg per mouse doses in 50 μl volumes of sterile HBS. The effect of the antibodies was evaluated in two mice models that included non-diabetic and diabetic C57BI/6 mice, respectively. Mice injected with incomplete Freund's adjuvant only (IFA) were used as the control (mock) group in each model. Bacterial load in mice urine was analyzed daily over 14-days' time period starting 24 h after bacterial challenge.
Diabetic state in C57BI/6 mice was induced by the 4 days-treatment with streptozotocin (STZ) by intraperitoneal injection. Groups of 100 C57BI/6 mice were randomly divided into 5 groups of ten for diabetic and for non-diabetic states respectively. […] Bacterial load in mice urine was analyzed daily over 14-days' time starting 24 h after bacterial challenge. Genomic bacterial load was quantified in each urine sample (10 μl) by qPCR. […] For log10 transformation, zero counts (E. coli not detected) were replaced with value 1. […] After exclusion of outliers, 617 (out of initial 673, 91.6%) observations were analyzed using same model.

Klebsiella fimbrial FimH = assay: Binding of anti-E. coli FimH antibodies to Klebsiella fimbrial FimH; parameters: species or system Klebsiella pneumoniae; settings: FimH^wt and FimH^S62A, 50 and 5 μg/ml mAb (FIG. 9)
Description: FIG. 9. Recognition of Klebsiella FimH by anti-E. coli FimH antibodies. […] Type 1 fimbriae carrying different FimH variants (FimH^wt and FimH^S62A mutant) were incubated with different concentrations of mAbs (50 and 5 μg/ml). Data shown are mean±SD of duplicates from one representative experiment.

E. coli CFT073 [2] = assay: Passive and active immunization, non-diabetic mice, bacterial load in urine; assay type: in vivo
Description: as §1
Diabetic state in C57BI/6 mice was induced by the 4 days-treatment with streptozotocin (STZ) by intraperitoneal injection. Groups of 100 C57BI/6 mice were randomly divided into 5 groups of ten for diabetic and for non-diabetic states respectively. […] Mice were challenged with CFT073 UPEC strain (1×10^6 cfu/50 μl per mouse) via intraurethral catheterization under isoflurane anesthesia. Bacterial load in mice urine was analyzed daily over 14-days' time starting 24 h after bacterial challenge. Genomic bacterial load was quantified in each urine sample (10 μl) by qPCR. Statistical analysis of the data was performed using the Generalized Estimating Equation model (GEE) (xtgee command in STATA software, StataCorp. 2015. Stata Statistical Software: Release 14. College Station, Tex.: StataCorp LP). Overall, 1400 observations were made for 100 mice over 14 days. Out of 1,400 total 237 observations were missing (no urine provided) and were excluded from subsequent analysis. The mice ID were set as a panel variable, treatment type and days as predictor variables with interaction allowed between them; and E. coli counts as an outcome variable. […] For log10 transformation, zero counts (E. coli not detected) were replaced with value 1. […] After exclusion of outliers, 617 (out of initial 673, 91.6%) observations were analyzed using same model.

E. coli UTI89 [3] = assay: Biofilm formation on mannan-coated surface; assay type: cell-based; settings: 1% mannose or 50 μg/ml mAb added prior to growth (FIG. 7A)
Description: (§2) Microtiter 96-well plates were coated with 20 μg/mL of yeast mannan or RNaseB (Sigma-Aldrich) in 0.02 M NaHCO3 buffer at pH 9.6. Bacterial strains grown overnight in 3 ml LB media were spun and washed 1× with minimal essential media (MEM, Difco). […] After washing with PBS, formed biofilms were stained with 0.1% (v/v) crystal violet (Becton Dickinson) as described above for bacterial adhesion assay. […] The wells were washed 3 times with PBS and stain for biofilm detection as described above.

Klebsiella pneumoniae [4] = assay: Inhibition of Klebsiella adhesion to surface-immobilized RNaseB; assay type: cell-based; settings: 50 μg/ml mAb (FIG. 10)
Description: FIG. 10. […] Data are mean±SD (n=2 independent experiments).
(§3) Microtiter 96-well plates were coated with 20 μg/ml of yeast mannan or RNaseB (Sigma-Aldrich) in 0.02 M NaHCO3 buffer at pH 9.6. The wells were quenched with 0.2% bovine serum albumin (BSA, Sigma-Aldrich) in PBS for 20 min. Bacteria expressing FimH adhesin (OD=1 or OD=2) were first preincubated with different concentrations of mAbs for 1 h at 37° C. and then allowed to adhere to ligand-coated surface for another 1 h. After an extensive washing with PBS, plates were dried and bound bacteria were stained with 0.1% crystal violet (Becton Dickinson) for 20 min at room temperature (RT). The wells were washed with water and 50% ethanol was added to the wells. The absorbance was measured at 600 nm.

E. coli UTI89 [5] = assay: Detachment of 16 h-old biofilm on mannan-coated surface; assay type: cell-based; settings: for effect on detachment of pre-formed biofilm: 1% mannose or 50 μg/ml mAb (FIG. 7B)
Description: as §2

[6] = test system: FimH^wt-expressing E. coli; assay: Inhibition of bacterial adhesion to surface-immobilized yeast mannan; assay type: cell-based
Description: as §3

FimH^wt:(186-201)FocH = assay: Cross-interference of inhibitory mAbs binding to FimH; parameters: species or system E. coli; settings: FimH pre-incubated with antibody, biotinylated mAb binding (FIG. 16)
Description: FIG. 16. Inhibitory mAbs interfere with each other's binding to FimH. […] The data shown are mean±SD of triplicates from one representative experiment of multiple experiments that were performed with similar settings.

Klebsiella pneumoniae [7] = assay: Klebsiella biofilm formation on RNaseB-coated surfaces; assay type: cell-based; settings: two Klebsiella FimH variants, 1% mannose or 50 μg/ml mAb (FIG. 11A)
Description: (§4) FIG. 11. […] Data (mean±SD, n=3 independent experiments). […] Data (mean±SD, n=3 independent experiments). Biofilm was quantified using the crystal violet staining method. *, P≤0.05, **, P≤0.0005 (one sample t-test).
as §2

Klebsiella pneumoniae [8] = assay: Detachment of 14 h-old Klebsiella biofilm; assay type: cell-based; settings: 14-h-old biofilm, 1% mannose or 50 μg/ml mAb (FIG. 11B)
Description: as §4, §2

E. coli UTI89 [9] = assay: Mouse bladder infection, transurethral inoculation of mAb-pretreated bacteria; assay type: in vivo; settings: C57BL/6 mice, 24 h post infection, bacteria pretreated with 500 μg/ml mAb 1 h
Description: Infection of 10- to 11-week-old C57BL/6 female mice was performed as described elsewhere (Kisiela, et al. 2013). Briefly, bacteria were grown in LB medium without shaking for 48 h, harvested, washed twice in PBS and resuspended in PBS at a final concentration of 10^8 CFU per ml. Bacteria were pretreated with 500 μg/ml mAbs for 1 h at 37° C. prior to inoculation. Mice were anesthetized with ketamine/xylazine and twenty-five microliters of mAb-pretreated bacteria in PBS were inoculated transurethrally into mouse bladders via catheter. After 24 h, mice were sacrificed and bladders were aseptically removed and homogenized in 1 mL PBS. Serial dilutions were plated and total bacterial load per bladder was calculated. Statistical significance was determined using two-tailed Mann-Whitney test (GraphPad Prism 6.0 software, La Jolla, Ca).

FimH^wt:(186-201)FocH, sequence (P08191 22-179 limits assumed): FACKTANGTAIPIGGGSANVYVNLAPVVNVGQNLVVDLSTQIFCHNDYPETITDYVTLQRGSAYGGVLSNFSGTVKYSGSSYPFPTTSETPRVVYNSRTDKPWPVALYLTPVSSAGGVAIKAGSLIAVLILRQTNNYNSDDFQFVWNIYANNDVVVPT

| Substance | effect on bacterial counts in urine vs mock group (E. coli CFT073 [1]) | binding to Klebsiella FimH compared with E. coli FimH (Klebsiella fimbrial FimH) | estimated average log10 of bacterial counts in urine (E. coli CFT073 [2]; non-diabetic C57BI/6 mice, day 1 after challenge, 150 μg mAb i.p. 1 day prior and 1 day after challenge) [log10] | estimated log10 bacterial counts in urine (E. coli CFT073 [2]; non-diabetic C57BI/6 mice, day 3 after challenge, 150 μg mAb i.p.) [log10] | effect on bacterial counts in urine vs mock group (E. coli CFT073 [2]; non-diabetic mice, mAb 150 μg i.p. or LD antigen 15 μg s.c.) | effect on biofilm formation (E. coli UTI89 [3]) | effect on Klebsiella adhesion to RNaseB (Klebsiella pneumoniae [4]) | biofilm reduction (E. coli UTI89 [5]; 50 μg/ml mAb (FIG. 7B)) [%] | effect on detachment of pre-formed biofilm (E. coli UTI89 [5]) | difference in inhibitory potency (IC50) mAb926 vs mAb475 [6] [fold] | inhibition of bacterial adhesion at its KD concentration ([6]; antibody at its KD concentration) [%] | interference with the other inhibitory mAb's binding to FimH (FimH^wt:(186-201)FocH) | inhibition of biofilm formation (Klebsiella pneumoniae [7]) | destabilization of pre-formed biofilm (Klebsiella pneumoniae [8]) | reduction in bacteria recovered from bladder (E. coli UTI89 [9]) [%] |
| --- | --- | --- | --- | --- | --- | --- | --- | --- | --- | --- | --- | --- | --- | --- | --- |
| mAb926: mouse monoclonal anti-FimH antibody, VL SEQ ID NO: 3, VH SEQ ID NO: 4; non-competitive parasteric inhibitor | reduced bacterial load | same level of binding to both FimH adhesins | 1.31±0.5 | 0.99±0.4 | significant decrease of bacterial counts in urine | prevented formation | significantly reduced bacterial adhesion | 93 | effective dissolution of the biofilm | 32 | > 50 | strongly cross-interfere with each other's binding to FimH | 76-86% | significant (P=0.0005) destabilization of the biofilm | 83 |
| α-methyl-D-mannopyranoside [mannose, reference compound] | – | – | – | – | – | prevented formation | – | – | neither mAb475 nor soluble mannose caused substantial detachment | – | – | – | 38-67% | – | – |
